These results are taken from patent US20140073639A1 (priority 2012, published 2014).

Converted amounts (≈) assume the structure as drawn.

One experiment relates to B. Anthracis. In words: microbe, parasite or virus in culture. Format: cell-based. The note with it: Bacillus anthracis; for inhibition at 10 µM: read-out: B. Anthracis 10 μM (growth inhibition); for inhibition at 30 µM: read-out: B. Anthracis 30 μM (growth inhibition); for inhibition at 3 µM: read-out: B. Anthracis 3 μM (growth inhibition).
A further experiment relates to S. MRSA. In words: microbe, parasite or virus in culture. The note with it: for inhibition at 10 µM / inhibition at 30 µM / inhibition at 3 µM: Staphylococcus aureus, MRSA; for inhibition at 10 µM: read-out: S. MRSA 10 μM (growth inhibition); for inhibition at 30 µM: read-out: S. MRSA 30 μM (growth inhibition); for inhibition at 3 µM: read-out: S. MRSA 3 μM (growth inhibition). The experiment is classed as cell-based.

The format of experiment [1] is cell-based.

For `O=C1Nc2ccc(Br)cc2/C1=C1/NC(=S)N(C(Cc2ccccc2)C(=O)O)C1=O` (stereo not shown) [Cmpd 31], in the experiment on B. Anthracis, the inhibition – broadly, the drop in the measured response relative to a control, in per cent – at 10 µM was determined as 2.5% and the inhibition at 30 µM was 88%. Further, in the experiment with S. MRSA, the inhibition at 10 µM is -8% and the inhibition at 30 µM was -2.22%. Besides, in experiment [1], the “MIC, 25% Serum” value was more than 250 µM and the “MIC, No Serum” value is 250 µM (≈ 118 µg/mL).
Turning to `O=C1Nc2cc(Cl)c(Br)cc2/C1=C1/NC(=S)N(C(Cc2ccccc2)C(=O)O)C1=O` (stereo not shown) [Cmpd 32], in the experiment on B. Anthracis, the inhibition at 3 µM was determined as 11.3%, the inhibition at 10 µM is 40.2% and the inhibition at 30 µM is 98.8%. Besides, the inhibition at 3 µM with S. MRSA (3 μM) was -11.9%. In addition, in the experiment with S. MRSA, the inhibition at 10 µM is -19.4% and the inhibition at 30 µM came to 93.8%. For the same molecule, in experiment [1], the “MIC, 25% Serum” value is more than 250 µM.
`O=C(O)C(Cc1ccccc1)N1C(=O)/C(=C\c2ccc(-c3ccc(Br)cc3)s2)NC1=S` (stereo not shown) [Cmpd 36]: in the experiment on B. Anthracis, the inhibition at 3 µM is 76.9%, the inhibition at 10 µM is 97.7% and the inhibition at 30 µM was 96.7%. The inhibition at 3 µM with S. MRSA (3 μM) was -19.2%. Also, in the experiment on S. MRSA, the inhibition at 10 µM is 91.1% and the inhibition at 30 µM amounted to 91.1%.
Turning to `O=C(O)C(Cc1ccccc1)N1C(=O)/C(=C\c2ccc(Br)s2)NC1=S` (stereo not shown) [Cmpd 37], the inhibition at 30 µM with B. Anthracis was 0%; in the experiment on S. MRSA, -6.27%.
Consider `O=C(O)C(Cc1ccccc1)N1C(=O)/C(=C\c2ccc(-c3ccc(Cl)cc3)o2)NC1=S` (stereo not shown) [Cmpd 38], for which, in the experiment on B. Anthracis, the inhibition at 3 µM was found to be 4.99%, the inhibition at 10 µM worked out at 68.9% and the inhibition at 30 µM was 99.7%. Also, in the experiment with S. MRSA (3 μM), the inhibition at 3 µM was -13.5%. In the experiment on S. MRSA, the inhibition at 10 µM is -16.9% and the inhibition at 30 µM came to 86.6%. Moreover, in experiment [1], the “MIC, 25% Serum” value is more than 250 µM and the “MIC, No Serum” value was determined as 62.5 µM (≈ 28.3 µg/mL).
Consider `O=C(O)C(Cc1ccccc1)N1C(=O)/C(=C\c2ccc(-c3ccc(Br)cc3)o2)NC1=S` (stereo not shown) [Cmpd 39], for which, in the experiment with B. Anthracis, the inhibition at 3 µM came out at 72.6%, the inhibition at 10 µM turned out to be 98.8% and the inhibition at 30 µM stood at 98.8%. Moreover, the inhibition at 3 µM in the experiment on S. MRSA (3 μM) was -9.55%. In the experiment with S. MRSA, the inhibition at 10 µM stood at 92.5% and the inhibition at 30 µM was 95.4%.
For `O=C(O)C(Cc1ccccc1)N1C(=O)/C(=C\c2ccc(-c3ccc(Br)c(Cl)c3)o2)NC1=S` (stereo not shown) [Cmpd 40], in the experiment on B. Anthracis, the inhibition at 3 µM is 98.1%, the inhibition at 10 µM came to 98.1% and the inhibition at 30 µM worked out at 98.1%. Moreover, the inhibition at 3 µM with S. MRSA (3 μM) turned out to be 17.9%. In the experiment with S. MRSA, the inhibition at 10 µM is 95.7% and the inhibition at 30 µM is 95.7%.
`O=C(O)C(Cc1ccccc1)N1C(=O)/C(=C\c2ccc(-c3ccc(Br)c(Cl)c3)s2)NC1=S` (stereo not shown) [Cmpd 41]: in the experiment on B. Anthracis, the inhibition at 3 µM amounted to 19.5%, the inhibition at 10 µM turned out to be 8.15% and the inhibition at 30 µM came out at 94.5%. Besides, in the experiment with S. MRSA, the inhibition at 10 µM was -7.45% and the inhibition at 30 µM is -0.89%.
Taken in the same sequence, the figures for `O=C(O)C(Cc1ccccc1)N1C(=O)/C(=C\c2ccc(-c3ccc(Cl)c(Cl)c3)o2)NC1=S` (stereo not shown) [Cmpd 42] were 96.2%, 99.5%, 96.7%, 98.7% and 94.5%.
In the case of `O=C(O)C(Cc1ccccc1)N1C(=O)/C(=C\c2ccc(-c3ccc(OC(F)(F)F)cc3)o2)NC1=S` (stereo not shown) [Cmpd 43], the inhibition at 3 µM in the experiment on B. Anthracis is 8.01%; with S. MRSA (3 μM), -1.32%. Further, the inhibition at 10 µM with B. Anthracis was 96.7%; in the experiment with S. MRSA it was -6.26%. In addition, the inhibition at 30 µM is 96.6% in the experiment on B. Anthracis and 95.2% in the experiment with S. MRSA.
With `O=C(O)C(Cc1ccccc1)N1C(=O)/C(=C\c2ccc(-c3ccc(I)cc3)o2)NC1=S` (stereo not shown) [Cmpd 45], in the experiment with B. Anthracis, the inhibition at 3 µM was 49.2%, the inhibition at 10 µM was 97.4% and the inhibition at 30 µM was 96.4%. Moreover, in the experiment on S. MRSA (3 μM), the inhibition at 3 µM was -1.84%. In the experiment with S. MRSA, the inhibition at 10 µM came to 88.2% and the inhibition at 30 µM came out at 92.7%.
Turning to `CC(=O)C(Cc1ccccc1)N1C(=O)/C(=C2/C(=O)Nc3cc(Cl)c(Cl)cc32)NC1=S` (stereo not shown) [Cmpd 49], in the experiment on B. Anthracis, the inhibition at 3 µM stood at 1.73%, the inhibition at 10 µM was -7.49% and the inhibition at 30 µM turned out to be 97.2%. In addition, the inhibition at 3 µM in the experiment with S. MRSA (3 μM) is -7.73%. In the experiment with S. MRSA, the inhibition at 10 µM is -20.3% and the inhibition at 30 µM is -26.3%.
Consider `O=C(O)C(Cc1ccccc1)N1C(=O)/C(=C\c2ccc(-c3ccc(Cl)c(Cl)c3)s2)NC1=S` (stereo not shown) [Cmpd 50], for which, in the experiment with B. Anthracis, the inhibition at 3 µM amounted to 1.03%, the inhibition at 10 µM stood at 108% and the inhibition at 30 µM was 94.2%. The inhibition at 3 µM with S. MRSA (3 μM) was -14.6%. In the experiment with S. MRSA, the inhibition at 10 µM came to 14.3% and the inhibition at 30 µM stood at 35.6%.
On to `O=C(O)[C@H](Cc1ccccc1)N1C(=O)/C(=C\c2ccc(-c3cc(Cl)cc(Cl)c3)o2)NC1=S` [Cmpd 51], for which, in the experiment on B. Anthracis, the inhibition at 3 µM is -0.16%, the inhibition at 10 µM is -3.08% and the inhibition at 30 µM was determined as 99.3%. The inhibition at 3 µM with S. MRSA (3 μM) was -0.61%. In the experiment on S. MRSA, the inhibition at 10 µM is -7.03% and the inhibition at 30 µM is 85.3%.
For `CNC(=O)C(Cc1ccccc1)N1C(=O)/C(=C\c2ccc(-c3ccc(Cl)c(Cl)c3)o2)NC1=S` (stereo not shown) [Cmpd 56], in experiment [1], the “MIC, 25% Serum” value is more than 250 µM and the “MIC, No Serum” value was more than 250 µM.
Turning to `O=C(O)C(Cc1ccccc1)N1C(=O)CNC1=S` (stereo not shown) [Cmpd 61], in experiment [1], the “MIC, 25% Serum” value is more than 250 µM and the “MIC, No Serum” value was more than 250 µM.
Take `O=C(O)C(Cc1ccccc1)N1C(=O)/C(=C\c2ccco2)NC1=S` (stereo not shown) [Cmpd 62]: in experiment [1], the “MIC, 25% Serum” value was more than 250 µM and the “MIC, No Serum” value is more than 250 µM.
`O=C1NC(=S)N/C1=C/c1ccc(-c2ccc(Cl)c(Cl)c2)o1` [Cmpd 63]: in experiment [1], the “MIC, 25% Serum” value is more than 250 µM and the “MIC, No Serum” value is 62.5 µM (≈ 21.2 µg/mL).
Consider `O=C([O-])C(Cc1ccccc1)N1C(=O)/C(=C\c2ccc(-c3ccc(Cl)c(Cl)c3)o2)NC1=S.[Na+]` (stereo not shown) [Cmpd 66], for which the “S. MRSA 3 μM (growth inhibition)” value with S. MRSA (3 μM) is 0.9. In experiment [1], the “MIC, 25% Serum” value is more than 250 µM and the “MIC, No Serum” value was 7.8 µM.
As to `O=C(O)C(Cc1ccccc1)N1C(=O)/C(=C\c2ccc(-c3ccc(Cl)nc3Cl)o2)NC1=S` (stereo not shown) [Cmpd 73], in experiment [1], the “MIC, 25% Serum” value was more than 250 µM and the “MIC, No Serum” value came out at 125 µM (≈ 61 µg/mL).
Taken in the same sequence, the figures for `O=C(O)c1cc(-c2ccc(/C=C3/NC(=S)N(C(Cc4ccccc4)C(=O)O)C3=O)o2)ccc1Cl` (stereo not shown) [Cmpd 74] were more than 250 µM and more than 250 µM.
The matching figures for `O=C(O)C(Cc1ccccc1)N1C(=O)/C(=C\c2ccc(-c3ccc(Cl)c(Cl)c3)[nH]2)NC1=S` (stereo not shown) [Cmpd 75]: more than 250 µM and 62.5 µM (≈ 30.4 µg/mL).
Taken in the same sequence, the figures for `O=C(O)C(Cc1ccccc1)N1C(=O)/C(=C\c2ccc(-c3ccc(Cl)c(Cl)n3)o2)NC1=S` (stereo not shown) [Cmpd 76] were more than 250 µM and 62.5 µM (≈ 30.5 µg/mL).
Turning to `O=C(O)c1cccc(N2C(=O)/C(=C\c3ccc(-c4ccc(Cl)c(Cl)c4)o3)NC2=S)c1` [Cmpd 77], in experiment [1], the “MIC, 25% Serum” value is more than 250 µM and the “MIC, No Serum” value stood at 31.3 µM (≈ 14.4 µg/mL).
The matching figures for `O=C(O)C(Cc1ccccc1)N1C(=O)/C(=C\c2ncc(-c3ccc(Cl)c(Cl)c3)o2)NC1=S` (stereo not shown) [Cmpd 78]: more than 250 µM and 250 µM (≈ 122 µg/mL).
The matching figures for `O=C(O)CN1C(=O)N/C(=C/c2ccc(-c3ccc(Cl)c(Cl)c3)o2)C1=O` [Cmpd 79]: more than 250 µM and more than 250 µM.
As to `O=C(O)C(Cc1ccccc1)N1C(=O)/C(=C\c2ccc(-c3cc(Cl)nc(Cl)c3)o2)NC1=S` (stereo not shown) [Cmpd 80], in experiment [1], the “MIC, 25% Serum” value is more than 250 µM and the “MIC, No Serum” value was 62.5 µM (≈ 30.5 µg/mL).
Taken in the same sequence, the figures for `CNC(=O)c1ccc(-c2ccc(/C=C3/NC(=S)N(C(Cc4ccccc4)C(=O)O)C3=O)o2)cc1` (stereo not shown) [Cmpd 81] were more than 250 µM and more than 250 µM.
The matching figures for `CNC(=O)c1ccc(Cl)c(-c2ccc(/C=C3/NC(=S)N(C(Cc4ccccc4)C(=O)O)C3=O)o2)c1Cl` (stereo not shown) [Cmpd 82]: more than 250 µM and more than 250 µM.
Take `CNC(=O)c1cc(-c2ccc(/C=C3/NC(=S)N(C(Cc4ccccc4)C(=O)O)C3=O)o2)ccc1Cl` (stereo not shown) [Cmpd 83]: in experiment [1], the “MIC, 25% Serum” value was more than 250 µM and the “MIC, No Serum” value is more than 250 µM.
For the molecule `O=C(O)C(Cc1ccccc1)N1C(=O)/C(=C\c2oc(Cl)nc2Cl)NC1=S` (stereo not shown) [Cmpd 84], in experiment [1], the “MIC, 25% Serum” value was more than 250 µM and the “MIC, No Serum” value was more than 250 µM.
With `CNC(=O)c1ccc(-c2ccc(/C=C3/NC(=S)N(C(Cc4ccccc4)C(=O)O)C3=O)o2)cc1Cl` (stereo not shown) [Cmpd 85], in experiment [1], the “MIC, 25% Serum” value is more than 250 µM and the “MIC, No Serum” value was more than 250 µM.
For the molecule `C=CCN1C(=O)/C(=C\c2ccc(-c3ccc(Cl)c(Cl)c3)o2)NC1=S` [Cmpd 86], in experiment [1], the “MIC, 25% Serum” value is more than 250 µM and the “MIC, No Serum” value was more than 250 µM.
With `CC(C)[C@H](C(=O)O)N1C(=O)C[C@H](NC(=O)c2cocc2-c2ccc(Cl)cc2)C1=O` [Cmpd 87], in experiment [1], the “MIC, 25% Serum” value is more than 250 µM and the “MIC, No Serum” value was more than 250 µM.
For the molecule `C=CCN1C(=O)/C(=C\c2cc(OCC)c(O)c(Br)c2Cl)NC1=S` [Cmpd 88], in experiment [1], the “MIC, 25% Serum” value is more than 250 µM and the “MIC, No Serum” value is more than 250 µM.
On to `C=CCN1C(=O)/C(=C\c2cc(OC)c(O)c(Cl)c2Cl)NC1=S` [Cmpd 89], for which, in experiment [1], the “MIC, 25% Serum” value was more than 250 µM and the “MIC, No Serum” value came to 250 µM (≈ 89.8 µg/mL).
The matching figures for `COc1cc(/C=C2/NC(=S)N(C(Cc3ccccc3)C(=O)O)C2=O)c(Cl)c(Cl)c1O` (stereo not shown) [Cmpd 90]: more than 250 µM and more than 250 µM.
The matching figures for `O=C(O)C(Cc1ccccc1)N1C(=O)/C(=C\c2cc3cc(Br)ccc3o2)NC1=S` (stereo not shown) [Cmpd 91]: more than 250 µM and 125 µM (≈ 58.9 µg/mL).
